Paper PMC6572064, “Discovery of 2-(1-(3-(4-Chloroxyphenyl)-3-oxo- propyl)pyrrolidine-3-yl)-1H-benzo[d]imidazole-4-carboxamide: A Potent Poly(ADP-ribose) Polymerase (PARP) Inhibitor for Treatment of Cancer” (Molecules, 2019)
Where two headings read alike, the source gives them in different places.

What was measured:
PARP-1 = biological target: T1, PARP-1 (Homo sapiens, UniProt P09874); test: PARP-1 inhibition assay (PARP-1 Chemiluminescent Assay Kit, BPS Bioscience); type: biochemical; conditions: 10 nM compound
T1 construct: purchased BPS Bioscience 80569
T1 sequence (P09874 whole entry): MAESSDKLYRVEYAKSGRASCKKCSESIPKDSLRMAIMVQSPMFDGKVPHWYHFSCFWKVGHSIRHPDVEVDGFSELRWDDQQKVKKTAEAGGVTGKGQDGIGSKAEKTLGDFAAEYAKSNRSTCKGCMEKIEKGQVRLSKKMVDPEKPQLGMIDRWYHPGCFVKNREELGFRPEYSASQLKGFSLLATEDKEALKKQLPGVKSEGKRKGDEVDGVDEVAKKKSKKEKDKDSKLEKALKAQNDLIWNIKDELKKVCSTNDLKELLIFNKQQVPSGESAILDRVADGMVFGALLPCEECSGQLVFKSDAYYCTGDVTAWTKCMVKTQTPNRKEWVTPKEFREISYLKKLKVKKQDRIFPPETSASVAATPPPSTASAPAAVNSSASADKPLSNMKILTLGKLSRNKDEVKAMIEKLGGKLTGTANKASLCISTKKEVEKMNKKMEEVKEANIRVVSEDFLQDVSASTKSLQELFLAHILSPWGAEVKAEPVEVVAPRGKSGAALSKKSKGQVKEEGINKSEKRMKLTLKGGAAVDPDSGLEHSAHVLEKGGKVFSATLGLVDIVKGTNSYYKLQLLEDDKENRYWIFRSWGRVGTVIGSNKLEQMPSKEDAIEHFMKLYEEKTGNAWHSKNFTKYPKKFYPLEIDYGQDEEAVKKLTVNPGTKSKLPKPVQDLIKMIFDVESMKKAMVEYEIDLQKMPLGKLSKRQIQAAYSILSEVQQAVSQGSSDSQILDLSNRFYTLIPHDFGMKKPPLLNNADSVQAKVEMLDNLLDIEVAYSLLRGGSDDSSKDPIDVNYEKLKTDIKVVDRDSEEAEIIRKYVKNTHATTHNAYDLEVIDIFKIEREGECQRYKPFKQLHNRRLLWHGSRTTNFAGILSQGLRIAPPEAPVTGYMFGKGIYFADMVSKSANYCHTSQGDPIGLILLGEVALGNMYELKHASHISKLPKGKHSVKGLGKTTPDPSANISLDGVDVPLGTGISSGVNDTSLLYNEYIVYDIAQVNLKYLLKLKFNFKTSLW
Procedure: (§1) The PARP-1 and PARP-2 inhibition assays were performed in outsourcing, by a CRO company, Shanghai Medicilon Inc. (Shanghai, China). […] Briefly, PARP-1 or PARP-2 biotinylated substrate was incubated with compounds or solvent control at varying concentrations and an assay buffer containing the PARP-1 or PARP-2 enzyme.

PARP-2 = biological target: T2, PARP-2 (Homo sapiens, UniProt Q9UGN5); test: PARP-2 inhibition assay (PARP-2 Chemiluminescent Assay Kit, BPS Bioscience); type: biochemical; conditions: 10 nM compound
T2 construct: purchased BPS Bioscience 80552
T2 sequence (Q9UGN5 whole entry): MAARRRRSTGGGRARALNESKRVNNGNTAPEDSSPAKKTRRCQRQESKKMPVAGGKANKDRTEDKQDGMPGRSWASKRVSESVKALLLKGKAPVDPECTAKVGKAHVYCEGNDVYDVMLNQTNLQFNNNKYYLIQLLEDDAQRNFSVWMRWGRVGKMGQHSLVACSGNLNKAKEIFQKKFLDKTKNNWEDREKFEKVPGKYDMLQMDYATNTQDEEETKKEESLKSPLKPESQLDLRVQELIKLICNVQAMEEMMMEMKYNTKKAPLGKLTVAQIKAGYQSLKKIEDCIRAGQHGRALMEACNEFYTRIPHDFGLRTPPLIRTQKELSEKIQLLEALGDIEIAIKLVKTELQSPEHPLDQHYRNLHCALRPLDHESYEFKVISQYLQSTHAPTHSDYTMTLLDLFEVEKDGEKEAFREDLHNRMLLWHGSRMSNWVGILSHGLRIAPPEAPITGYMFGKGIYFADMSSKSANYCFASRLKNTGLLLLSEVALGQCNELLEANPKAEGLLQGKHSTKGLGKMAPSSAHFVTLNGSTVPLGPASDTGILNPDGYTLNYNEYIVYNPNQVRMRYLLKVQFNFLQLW
Procedure: as §1

[1] = test system: MDA-MB-436 (a BRCA-1-mutated breast cancer cell line); test: Cell proliferation assay, three-day, CellTiter-Glo, MDA-MB-436; type: cell-based; conditions: Homo sapiens; for inhibition at 0.00508 µM: MDA-MB-436, MDA-MB-436, Conc. 0.00508 uM; for inhibition at 0.0152 µM: MDA-MB-436, MDA-MB-436, Conc. 0.0152 uM; for inhibition at 0.0457 µM: MDA-MB-436, MDA-MB-436, Conc. 0.0457 uM; for inhibition at 0.41 µM: MDA-MB-436, MDA-MB-436, Conc. 0.41 uM; for inhibition at 1.23 µM: MDA-MB-436, MDA-MB-436, Conc. 1.23 uM; for inhibition at 3.7 µM: MDA-MB-436, MDA-MB-436, Conc. 3.70 uM; for inhibition at 11.11 µM: MDA-MB-436, MDA-MB-436, Conc. 11.11 uM; for inhibition at 33.33 µM: MDA-MB-436, MDA-MB-436, Conc. 33.33 uM; for inhibition at 100 µM: MDA-MB-436, MDA-MB-436, Conc. 100.00 uM
In short: (§2)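 Luminescent ATP read-out (CellTiter-Glo, 60 min at room temperature) quantified viability after a 72 h compound exposure at 37 °C, 5% CO2. Compounds, diluted from DMSO stocks into growth medium, were added to cells plated the previous day.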

[2] = test system: CAPAN-1 (a BRCA-2-mutated pancreatic cancer cell line); test: Cell proliferation assay, three-day, CellTiter-Glo, CAPAN-1; type: cell-based; conditions: Homo sapiens; for inhibition at 0.00508 µM: CAPAN-1, Conc. 0.00508 uM; for inhibition at 0.0152 µM: CAPAN-1, Conc. 0.0152 uM; for inhibition at 0.0457 µM: CAPAN-1, Conc. 0.0457 uM; for inhibition at […]: CAPAN-1, Conc. 0.14 uM; for inhibition at 0.41 µM: CAPAN-1, Conc. 0.41 uM; for inhibition at 1.23 µM: CAPAN-1, Conc. 1.23 uM; for inhibition at 3.7 µM: CAPAN-1, Conc. 3.70 uM; for inhibition at 11.11 µM: CAPAN-1, Conc. 11.11 uM; for inhibition at 33.33 µM: CAPAN-1, Conc. 33.33 uM; for inhibition at 100 µM: CAPAN-1, Conc. 100.00 uM
In short: as §2

In the case of `NCCN1CCC(c2nc3c(C(N)=O)cccc3[nH]2)C1` (centres unmarked) [Compound 5cm, 2-(1-(2-Aminoethyl)pyrrolidin-3-yl)-1H-benzo[d]imidazole-4-carboxamide], the inhibition at 0.01 µM (PARP-1; supplement sheet, read-out: 10 nM inhibition% PAPR-1) is reported as 24.8%, the inhibition at 0.01 µM (PARP-1; read-out: PARP-1 Inhibition % (10 nM)) is reported as 24.8% and the inhibition at 0.01 µM (PARP-2; supplement sheet, read-out: 10 nM inhibition% PAPR-2) is reported as 32.8%. For the same compound, the inhibition at 0.01 µM (PARP-2; read-out: PARP-2 Inhibition % (10 nM)) was 32.8%, the inhibition at 0.00508 µM ([1]; replicate 1, read-out: Inh % 1) was -8.5% and the inhibition at 0.00508 µM ([1]; replicate 2, read-out: Inh % 2) was -9.3%. For the same compound, the inhibition at 0.0152 µM ([1]; replicate 1, read-out: Inh % 1) was 1.1%, the inhibition at 0.0152 µM ([1]; replicate 2, read-out: Inh % 2) was -4.9% and the inhibition at 0.0457 µM ([1]; replicate 1, read-out: Inh % 1) was -11.2%. For the same compound, the inhibition at 0.0457 µM ([1]; replicate 2, read-out: Inh % 2) was -10.5%, the inhibition at 0.41 µM ([1]; replicate 1, read-out: Inh % 1) was -6.2% and the inhibition at 0.41 µM ([1]; replicate 2, read-out: Inh % 2) was -16.8%. The inhibition at 1.23 µM ([1]; replicate 1, read-out: Inh % 1) was -5.3%, the inhibition at 1.23 µM ([1]; replicate 2, read-out: Inh % 2) was -11.1% and the inhibition at 3.7 µM ([1]; replicate 1, read-out: Inh % 1) was -4.9%. It also gave an inhibition at 3.7 µM ([1]; replicate 2, read-out: Inh % 2) of -6.8%, an inhibition at 11.11 µM ([1]; replicate 1, read-out: Inh % 1) of -3.6% and an inhibition at 11.11 µM ([1]; replicate 2, read-out: Inh % 2) of -6.5%. The inhibition at 33.33 µM ([1]; replicate 1, read-out: Inh % 1) was 3%, the inhibition at 33.33 µM ([1]; replicate 2, read-out: Inh % 2) was -4.3% and the inhibition at 100 µM ([1]; replicate 1, read-out: Inh % 1) was 16.7%. The inhibition at 100 µM ([1]; replicate 2, read-out: Inh % 2) was 7.9%, the IC50 ([1]; MDA-MB-436, 72 h, CellTiter-Glo, read-out: MDA-MB-436 IC50) was > 100 µM and the IC50 ([2]; CAPAN-1, 72 h, CellTiter-Glo, read-out: CAPAN-1 IC50) was > 100 µM. It also gave an inhibition at 0.00508 µM ([2]; replicate 1, read-out: Inh % 1) of -3.2%, an inhibition at 0.00508 µM ([2]; replicate 2, read-out: Inh % 2) of 4.5% and an inhibition at 0.0152 µM ([2]; replicate 1, read-out: Inh % 1) of -3%. It also gave an inhibition at 0.0152 µM ([2]; replicate 2, read-out: Inh % 2) of -13.2%, an inhibition at 0.0457 µM ([2]; replicate 1, read-out: Inh % 1) of -3.1% and an inhibition at 0.0457 µM ([2]; replicate 2, read-out: Inh % 2) of -9.3%. For the same compound, the inhibition at […] ([2]; replicate 1, read-out: Inh % 1) was 0.182%, the inhibition at […] ([2]; replicate 2, read-out: Inh % 2) was -8.2% and the inhibition at 0.41 µM ([2]; replicate 1, read-out: Inh % 1) was 4%. For the same compound, the inhibition at 0.41 µM ([2]; replicate 2, read-out: Inh % 2) was -2.2%, the inhibition at 1.23 µM ([2]; replicate 1, read-out: Inh % 1) was -2.5% and the inhibition at 1.23 µM ([2]; replicate 2, read-out: Inh % 2) was -0.9%. For the same compound, the inhibition at 3.7 µM ([2]; replicate 1, read-out: Inh % 1) was 0.8%, the inhibition at 3.7 µM ([2]; replicate 2, read-out: Inh % 2) was 2.3% and the inhibition at 11.11 µM ([2]; replicate 1, read-out: Inh % 1) was -3.4%. It also gave an inhibition at 11.11 µM ([2]; replicate 2, read-out: Inh % 2) of 4.2%, an inhibition at 33.33 µM ([2]; replicate 1, read-out: Inh % 1) of -1.1% and an inhibition at 33.33 µM ([2]; replicate 2, read-out: Inh % 2) of -7.7%. It also gave an inhibition at 100 µM ([2]; replicate 1, read-out: Inh % 1) of 0.459% and an inhibition at 100 µM ([2]; replicate 2, read-out: Inh % 2) of -6%.
